US20250099411A1, “Methods of Treatment of Inflammation Related Conditions Using Pluripotent Anti-Inflammatory and Metabolic Modulators” (Institut Pasteur de Montevideo, priority 2018, published 2025)

Legend:
[1] = system: Nrf2/Keap I-dependent gene expression; assay: Nrf2/Keap I-dependent phase two enzyme gene expression (HO-I, GCLM, NQO I qPCR) in Hep G2 cells; format: cell-based; conditions: Hep G2, five hours, SANA 0.1 mM, Salicylic Acid 0.2 and 5 mM
Procedure: FIGS. 6 and 7 show induction of phase two enzymes Nrf2/Keap I-dependent gene expression by SANA but not by SA Hep G2 cells were treated with SANA (0.1 mM) or Salicylic Acid (0.2 and 5 mM) for five hours. mRNA was extracted from the cells and was measured HO-I, GCLM and NQO I gene expression by qPCR.

inflammasome = assay: Inflammasome inhibition (IL-lb ELISA) in THP-1 cells differentiated into macrophages, LPS then ATP; format: cell-based, human; conditions: for inhibition of the inflammasome (IL-lb), applied with the second signal: together with ATP (5 mM, 45 minutes) after LPS, SANA 0.05-0.25 mM, SA 0.25 mM; for inhibition of the inflammasome (IL-lb), applied with the first signal: together with LPS (250 ng/ml, 3 hs.), then ATP 5 mM 45 minutes, SANA 0.05-0.25, SA 0.25 mM
Procedure: In FIGS. 8 and 9 show the inhibition of inflammasome in THP-1 cells differentiated into macrophages (PMA 200 nM, 48 hs.) by SANA but not by SA when applied together with the first (FIG. 8) or the second (FIG. 9) signal. In FIG. 8 cells were treated with Salicylic acid (0.25 mM) or SANA (0.05; 0.125 and 0.25) together with LPS stimulation. The cells were stimulated with LPS (250 ng/ml, 3 hs.) and then with ATP (5 mM, 45 minutes). Supernatant was collected and IL-lb measured by ELISA Cell viability was assessed by MTT assay. […] In FIG. 9 THP-1 cells were differentiated into macrophages with PMA (200 nM, 48 hs.). Cells were stimulated with LPS (250 ng/ml, 3 hs.) and then with ATP (5 mM, 45 minutes). Together with ATP treatment, cells were then treated with NAT×ME (10 uM), Salicylic acid (0.25 mM) or SANA (0.05; 0.125 and 0.25 mM). Supernatant was collected and IL-lb secretion was measured by ELISA Cell viability was assessed by the MTT assay.

[2] = Stopped-flow kinetics of the reaction with BME; format: physicochemical; conditions: 25° C., triplicate, BME 0.54-2.73 mM, absorbance at 260 nm
Procedure: In FIG. 2, it is shown that the reaction between SANA and BME was determined to be a second order rate constant. Stopped-flow kinetic measurements were performed using an Rx 2000 stopped flow analyzer (Applied Photophysics). Mixtures of 150 μL NATx0 (25 μM) and solutions of BME at 0.54 mM, 1.09 mM, 1.64 mM, 2.18 mM, and 2.73 mM concentrations.
The reaction was monitored by following the absorbance at 260 nm and plots were fitted to a simple exponential decay function using Originlab software (version 8.0.). The observed pseudo first order constant at each concentration of BME was extracted from the equation and plotted against the concentration of BME. The second rate constant of the reaction is derived from the slope of the curve and was 182±6 M·^1s·^1. All experiments were carried out at 25° C. by triplicate.

11-lb secretion = assay: LPS-induced 11-lb secretion into the peritoneum in vivo
[3] = Glucose tolerance test in HFD obese mice; format: in vivo; conditions: mice under HFD up to 7 months, 100 mg/kg gavage every day during four weeks
Procedure: Mice under HFD for up to 7 months (mean weight around 40 gr.) were treated with SANA (100 mg/kg; gavage) or phosphate buffer (control) every day during four weeks. The glucose tolerance test were run as per well-known standard procedures.

GAPDH = GAPDH (Homo sapiens, UniProt P04406); assay: GAPDH activity; format: biochemical
[4] = Skin allograft rejection, male tail skin grafted onto female mice; format: in vivo, C57BL/6 mice; conditions: 100 mg/kg oral gavage daily, day -1 to day 15
Procedure: C57BL/6 female mice were grafted with skin from the tails of C57BL/6 male mice. The skin graft is a small'square (1 cm^2 and it was implanted onto the left subscapular region of the female mice. From one day before the transplantation until 15 days after it, the mice were treated daily with SANA (100 mg/kg, by oral gavage; SANA group) or vehicle (Control group). The vehicle used was a solution of Carboxy-Methyl-cellulose 0.5% m/v and Tween 80 0.5% v/v. At the end of the 15th day of administration, allografts were checked every 48/72 hours to assess the condition of the grafted skin. Rejection was diagnosed clinically when the allograft lost more than 50% of its size and/or more than I 0% of allograft was necrotic.
The study followed the protocol described above for FIG. I, but further included a Salicylate group. C57BL/6 female mice were grafted with skin from the tails of C57BL/6 male mice. The skin graft is a small square (1 cm^2 and it was implanted onto the left subscapular region of the female mice. From one day before the transplantation until 15 days after it, the mice were treated daily with Salicylate (100 mg/kg, by oral gavage; Salicylate group), SANA (100 mg/kg, by oral gavage; SANA group) or vehicle (Control group). The vehicle used was a solution of
Carboxy-Methyl-cellulose 0.5% m/v and Tween 80 0.5% v/v. […]

[5] = Body weight of mice fed a high-fat diet; format: in vivo
Description: (§1) While not wishing to be bound by theory, thermogenesis and weight loss are a result of AMPK activation together with white adipose tissue and mitochondrial uncoupling. […] SANA's beneficial effects also include reducing adverse effects related to obesity. […] FIGS. 22 and 23, compare the body temperatures of mice on normal diets (“ND”), HFD, and HFD with administration of SANA.

[6] = Magnetic resonance imaging (MRI) of fat content; format: in vivo; conditions: mice
Description: as §1

[7] = Thermogenesis / body temperature of mice on HFD; format: in vivo
Description: as §1

[8] = Thermogenesis and weight loss in mice on a normal diet; format: in vivo
Description: as §1

GAPDH, sequence (P04406 whole entry, species assumed): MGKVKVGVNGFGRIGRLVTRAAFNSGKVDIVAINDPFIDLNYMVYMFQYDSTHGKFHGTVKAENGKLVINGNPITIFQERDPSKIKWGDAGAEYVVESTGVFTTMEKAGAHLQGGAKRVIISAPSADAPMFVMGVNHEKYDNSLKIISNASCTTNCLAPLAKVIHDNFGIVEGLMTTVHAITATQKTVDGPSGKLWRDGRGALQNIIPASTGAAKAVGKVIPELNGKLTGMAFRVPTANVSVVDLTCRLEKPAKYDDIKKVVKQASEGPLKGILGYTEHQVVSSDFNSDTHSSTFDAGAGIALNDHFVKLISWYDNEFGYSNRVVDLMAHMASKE

Compound | induction of phase two enzymes Nrf2/Keap I-dependent gene expression [1] | inhibition of the inflammasome (IL-lb), applied with the second signal (inflammasome) | inhibition of the inflammasome (IL-lb), applied with the first signal (inflammasome) | second rate constant of the reaction with BME [2] | LPS-induced 11-lb secretion into the peritoneum (11-lb secretion) | insulin resistance (glucose tolerance test) [3] | GAPDH activity (GAPDH) | skin allograft rejection compared to salicylic acid [4] | survival of grafted skin versus control group [4] | rate of weight gain ([5]; mice fed high-fat diet, 29 weeks) | dose dependence of the effect on obesity ([5]; mouse, in vivo) | fat content (MRI) [6] | body temperature ([7]; HFD with SANA versus ND mice and HFD mice) | thermogenesis ([7]; mouse, in vivo) | thermogenesis [8] | weight loss [8]
O=C(O)c1ccccc1O [SA, salicylic acid, reference compound] | not by SA | cannot inhibit | cannot inhibit | – | – | – | – | – | – | – | – | – | – | – | – | –
O=C(O)c1cc(/C=C/[N+](=O)[O-])ccc1O [SANA, 2-hydroxy-5-(2-nitroethenyl)benzoic acid] | induction | potent inhibitor | potent inhibitor | 182±6 M·^1s·^1 | decreases | reverses insulin resistance | does not inhibit | significant reduction in skin allograft rejection | prolonged survival of grafted skin | reduced the rate of weight gain | dose response effect | induces loss of fat content | higher body temperatures than that of ND mice and HFD mice | inducing thermogenesis | does not induce | does not induce
